Assay results from ChEMBL document CHEMBL1201862, “PubChem BioAssay data set” (2004).
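Exposure lasted 48 hours, with cells grown in 96-well plates and compounds tested at five concentrations. The concentration for 50% growth inhibition is given as GI50.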 The source made the active and inactive calls. Rule as the data show it: active = GI50 up to about 1.1 µM and inactive = higher.

Assays:
Experiment in all cases: DTP human tumour cell line panel, 48 h
MOLT-4 = system: MOLT-4
SR = system: SR
DU-145 = system: DU-145
RPMI-8226 = system: RPMI-8226
SNB-19 = system: SNB-19
CCRF-CEM = system: CCRF-CEM
SK-MEL-5 = system: SK-MEL-5
NCI-H226 = system: NCI-H226
CAKI-1 = system: CAKI-1
BT-549 = system: BT-549
IGROV-1 = system: IGROV-1
RXF 393 = system: RXF 393
K562 = system: K562
T47D = system: T47D
COLO 205 = system: COLO 205
HOP-62 = system: HOP-62
SF-295 = system: SF-295
OVCAR-5 = system: OVCAR-5
UO-31 = system: UO-31
M14 = system: M14
HCT-15 = system: HCT-15
MDA-MB-231 = system: MDA-MB-231
MDA-MB-435 = system: MDA-MB-435
NCI-H522 = system: NCI-H522
HT-29 = system: HT-29
HCC 2998 = system: HCC 2998
SK-MEL-28 = system: SK-MEL-28
U-251 = system: U-251
HL-60 = system: HL-60
MCF7 = system: MCF7
SN12C = system: SN12C
HCT-116 = system: HCT-116
A498 = system: A498
KM12 = system: KM12
Hs-578T = system: Hs-578T
OVCAR-3 = system: OVCAR-3
MDA-N = system: MDA-N
Malme-3M = system: Malme-3M
PC-3 = system: PC-3
UACC-62 = system: UACC-62
NCI/ADR-RES = system: NCI/ADR-RES
SK-MEL-2 = system: SK-MEL-2
OVCAR-8 = system: OVCAR-8
SNB-75 = system: SNB-75
NCI-H23 = system: NCI-H23
SK-OV-3 = system: SK-OV-3
NCI-H460 = system: NCI-H460
OVCAR-4 = system: OVCAR-4
UACC-257 = system: UACC-257
SW-620 = system: SW-620
EKVX = system: EKVX
LOX IMVI = system: LOX IMVI
HOP-92 = system: HOP-92
A549 = system: A549
TK-10 = system: TK-10
SF-539 = system: SF-539
ACHN = system: ACHN

## c1ccc(/N=C2\S/C(=N\C3CCCCC3)N(C3CCCCC3)\C2=N/c2ccccc2)cc1
MOLT-4
  GI50: 37.8 µM (inactive)
SR
  GI50: > 100 µM (inactive)
DU-145
  GI50: > 100 µM (inactive)
RPMI-8226
  GI50: > 100 µM (inactive)
SNB-19
  GI50: > 100 µM (inactive)
CCRF-CEM
  GI50: > 100 µM (inactive)
SK-MEL-5
  GI50: 80.4 µM (inactive)
NCI-H226
  GI50: > 100 µM (inactive)
CAKI-1
  GI50: > 100 µM (inactive)
BT-549
  GI50: > 100 µM (inactive)
IGROV-1
  GI50: > 100 µM (inactive)
RXF 393
  GI50: > 100 µM (inactive)
K562
  GI50: > 100 µM (inactive)
T47D
  GI50: > 100 µM (inactive)
COLO 205
  GI50: > 100 µM (inactive)
HOP-62
  GI50: > 100 µM (inactive)
SF-295
  GI50: > 100 µM (inactive)
OVCAR-5
  GI50: > 100 µM (inactive)
UO-31
  GI50: > 100 µM (inactive)
M14
  GI50: > 100 µM (inactive)
HCT-15
  GI50: > 100 µM
MDA-MB-231
  GI50: > 100 µM (inactive)
MDA-MB-435
  GI50: > 100 µM (inactive)
NCI-H522
  GI50: > 100 µM (inactive)
HT-29
  GI50: > 100 µM (inactive)
HCC 2998
  GI50: > 100 µM (inactive)
SK-MEL-28
  GI50: > 100 µM (inactive)
U-251
  GI50: > 100 µM (inactive)
HL-60
  GI50: > 100 µM (inactive)
MCF7
  GI50: > 100 µM (inactive)
SN12C
  GI50: > 100 µM (inactive)
HCT-116
  GI50: > 100 µM (inactive)
A498
  GI50: > 100 µM (inactive)
KM12
  GI50: > 100 µM (inactive)
Hs-578T
  GI50: > 100 µM (inactive)
OVCAR-3
  GI50: > 100 µM (inactive)
MDA-N
  GI50: > 100 µM (inactive)
Malme-3M
  GI50: > 100 µM (inactive)
PC-3
  GI50: 67.1 µM (inactive)
UACC-62
  GI50: > 100 µM (inactive)
NCI/ADR-RES
  GI50: > 100 µM (inactive)
SK-MEL-2
  GI50: > 100 µM (inactive)
OVCAR-8
  GI50: > 100 µM (inactive)
SNB-75
  GI50: > 100 µM (inactive)
NCI-H23
  GI50: > 100 µM (inactive)
SK-OV-3
  GI50: > 100 µM (inactive)
NCI-H460
  GI50: > 100 µM (inactive)

## CC1OC2=N[C@@H]1C(=O)N[C@@H](Cc1ccccc1)C1=N[C@H](C(=O)N[C@@H](Cc3ccccc3)C3=N[C@H](C(=O)N[C@H]2Cc2ccccc2)C(C)O3)C(C)O1 (stereo partly specified)
OVCAR-4
  GI50: 46.2 µM (inactive)
SR
  GI50: 27.9 µM (inactive)
DU-145
  GI50: 57.9 µM (inactive)
RPMI-8226
  GI50: 13.5 µM (inactive)
UACC-257
  GI50: 30.4 µM (inactive)
SK-MEL-5
  GI50: 24.3 µM (inactive)
NCI-H226
  GI50: 29.6 µM (inactive)
CAKI-1
  GI50: 40.4 µM (inactive)
SW-620
  GI50: 37.2 µM (inactive)
EKVX
  GI50: 49.5 µM (inactive)
BT-549
  GI50: 40 µM (inactive)
IGROV-1
  GI50: 29.4 µM (inactive)
RXF 393
  GI50: 31.1 µM (inactive)
K562
  GI50: 26.7 µM (inactive)
T47D
  GI50: 31.1 µM (inactive)
COLO 205
  GI50: 18.6 µM (inactive)
HOP-62
  GI50: 48.3 µM (inactive)
SF-295
  GI50: 30.7 µM (inactive)
OVCAR-5
  GI50: 30.3 µM (inactive)
UO-31
  GI50: 31.8 µM (inactive)
M14
  GI50: 22.6 µM (inactive)
HCT-15
  GI50: 30.6 µM
MDA-MB-231
  GI50: 33 µM (inactive)
LOX IMVI
  GI50: 17 µM (inactive)
MDA-MB-435
  GI50: 28 µM (inactive)
HOP-92
  GI50: 18.9 µM (inactive)
HT-29
  GI50: 20 µM (inactive)
HCC 2998
  GI50: 34.5 µM (inactive)
A549
  GI50: 25.5 µM (inactive)
SK-MEL-28
  GI50: 26.5 µM (inactive)
MCF7
  GI50: 45.9 µM (inactive)
TK-10
  GI50: 26.5 µM (inactive)
SN12C
  GI50: 36 µM (inactive)
SF-539
  GI50: 24.2 µM (inactive)
HCT-116
  GI50: 23.3 µM (inactive)
A498
  GI50: 29.9 µM (inactive)
KM12
  GI50: 61.1 µM (inactive)
Hs-578T
  GI50: 24.3 µM (inactive)
OVCAR-3
  GI50: 28.2 µM (inactive)
MDA-N
  GI50: 43.2 µM (inactive)
Malme-3M
  GI50: 22.4 µM (inactive)
PC-3
  GI50: 22.4 µM (inactive)
UACC-62
  GI50: 30.8 µM (inactive)
NCI/ADR-RES
  GI50: 44.6 µM (inactive)
SK-MEL-2
  GI50: 25.1 µM (inactive)
OVCAR-8
  GI50: 26.4 µM (inactive)
NCI-H23
  GI50: 37.2 µM (inactive)
ACHN
  GI50: 31.3 µM (inactive)
SK-OV-3
  GI50: 49.7 µM (inactive)
